Values joined by “and” are separate entries in the source; they are usually repeats but may differ in a detail not shown here. Equal entries are not always repeated. Where two headings read alike, the source gives them in different places.
How the values were obtained:
[1] = pharmacokinetic study in the cerebrospinal fluid of cynomolgus monkey; format: in vivo
Experimental: The pharmacodynamic study in cynomolgus monkey animal model of cerebral stroke and also the pharmacokinetic study of the crystal form A of TBN in the cerebrospinal fluid of cynomolgus monkey were carried out. 10 min, 30 min, 60 min, and 120 min after the second administration (30 mg/kg, 6 hrs after the first intravenous administration of 30 mg/kg), 0.5 ml of cerebrospinal fluid was collected for pharmacokinetic test.

[2] = in vitro cell experiments (effective protection concentration); format: cell-based
[3] = distribution in tissues after intravenous administration to SD rats; format: in vivo; conditions: 30 mg/kg i.v.
Experimental: SD rats were given the crystal form A of TBN at a dose of 30 mg/kg by intravenous injection and the distribution of the crystal form A of TBN in various tissues was investigated.

[4] = pharmacokinetic study in the cerebrospinal fluid of cynomolgus monkey; format: in vivo; conditions: plasma, iv, 30 mg/kg, 10 min after the second administration, 30 mg/kg i.v., read-out: concentration of the drug in plasma
[5] = Polymorph transformation test of suspension; format: physicochemical; conditions: petroleum ether, room temperature, 7 days
Experimental: (1) The crystal form A of TBN was beaten in petroleum ether (1.0 mL) at room temperature for 7 days, and then the suspension was centrifuged, and the solid sample was collected for characterization by XRPD.

[6] = Test of stability against mechanical treatment (grinding); format: physicochemical; conditions: ground for 10 min
Experimental: (2) The crystal form A of TBN and the TBN dihydrate were ground for 10 min receptively, and the treated samples were analyzed by XRPD.

Tableting test = format: physicochemical; conditions: 2 tons for 2 min
Experimental: (3) The crystal form A and the TBN dihydrate were tableted under a pressure of 2 tons for 2 min. The tablets thus obtained were analyzed by XRPD.

[7] = Test of stability against cold/heat treatment; format: physicochemical
Experimental: (4) The crystal form A was cooled to −55° C., and then heated to 25° C.
(5) The crystal form A was heated to 110° C. (before the decomposition point), and then cooled to 25° C. to obtain a yellow oily liquid.
(6) The TBN dihydrate was heated to 110° C. (before the decomposition point), and then cooled to 25° C. to obtain a yellow oily liquid.

[8] = Test of influence of acceleration; format: physicochemical
Solubility in solvents = format: physicochemical

Cc1nc(C)c(/C=[N+](\[O-])C(C)(C)C)nc1C [TBN, (Z)-2-methyl-N-((3,5,6-trimethylpyrazin-2-yl)methylene)propan-2-amine oxide]
Drug concentration in cerebrospinal fluid ([1]; 10 min after second intravenous 30 mg/kg dose, individual animals, 30 mg/kg): 33700 ng/mL and 34300 ng/mL
Drug concentration in cerebrospinal fluid ([1]; 30 min after second intravenous 30 mg/kg dose, individual animals, 30 mg/kg): 32200 ng/mL and 25100 ng/mL
Drug concentration in cerebrospinal fluid ([1]; 60 min after second intravenous 30 mg/kg dose, individual animals, 30 mg/kg): 25300 ng/mL and 20000 ng/mL
Drug concentration in cerebrospinal fluid ([1]; 120 min after second intravenous 30 mg/kg dose, individual animals, 30 mg/kg): 16500 ng/mL and 14300 ng/mL and 7800 ng/mL
concentration at 10 min ([1]; cerebrospinal fluid, iv, 30 mg/kg, 10 min after second intravenous 30 mg/kg dose, individual animals, read-out: Drug concentration in cerebrospinal fluid): 48800 ng/mL
concentration at 10 min ([1]; cerebrospinal fluid, iv, 30 mg/kg, 10 min after the second administration, 30 mg/kg i.v., read-out: concentration of TBN in the cerebrospinal fluid): 176 µM
concentration at 30 min ([1]; cerebrospinal fluid, iv, 30 mg/kg, 30 min after second intravenous 30 mg/kg dose, individual animals, read-out: Drug concentration in cerebrospinal fluid): 41100 ng/mL
concentration at 60 min ([1]; cerebrospinal fluid, iv, 30 mg/kg, 60 min after second intravenous 30 mg/kg dose, individual animals, read-out: Drug concentration in cerebrospinal fluid): 27500 ng/mL
effective protection concentration [2]: 30 µM
accumulation in the detected tissues [3]: does not tend to accumulate
time to clearance from the tissues and plasma [3]: ≤ 24 h
concentration in the brain tissue relative to plasma concentration ([3]; 0.25 hrs after administration): 0.6-0.7 time the plasma concentration
concentration in the brain tissue relative to plasma concentration ([3]; after 4 hrs): 0.8-1.1 times the plasma concentration
clearance from brain tissue ([3]; at 24 hrs): completely cleared
tissue distribution ([3]; female and male): rapid and widespread distribution
concentration at 10 min [4]: 195 µM

Cc1nc(C)c(/C=[N+](\[O-])C(C)(C)C)nc1C [crystal form A of TBN, (Z)-2-methyl-N-((3,5,6-trimethylpyrazin-2-yl)methylene)propan-2-amine oxide]
blood-brain barrier penetration ([1]; 30 mg/kg i.v.): penetrate through the blood-brain barrier
crystal form by XRPD after suspension beating [5]: still crystal form A
crystal form (XRPD) after grinding [6]: no change
polymorph transformation after tableting (XRPD) (Tableting test): do not undergo polymorph transformation
polymorph transformation after cooling treatment ([7]; cooled to −55° C., then heated to 25° C.): does not undergo polymorph transformation
crystal form by XRPD after thermal treatment ([7]; heated to 110° C., cooled to 25° C., solid precipitated after stirring): characterized by XRPD as crystal form A
crystal form by XRPD after acceleration ([8]; 7 days at 40° C. and RH=75%): shows crystal form A
stability in heat treatment, mechanical treatment and acceleration ([8]; acceleration (50° C., 75% RH)): stable
solubility (Solubility in solvents; most solvents (acetonitrile, methanol, ethanol, acetone, ethyl acetate)): readily soluble
solubility (Solubility in solvents; water): very soluble

— US12187688B2, “Crystal form of tetramethylpyrazine nitrone, preparation method and use thereof” (GUANGZHOU MAGPIE PHARMACEUTICALS CO., LTD., priority 2019, dated 2025)
